Results taken from patent US20060100153A1, “HSulf-1 nucleic acids, polypeptides and methods of using” (Mayo Foundation for Medical Education and Research, a …, priority 2003, published 2006).
Where a SMILES comes first, the peptide text is derived from it. The star is where a group is joined. Cbz = O=C(OCc1ccccc1)*; CH2F = FC*

What was measured:
hSulf1 expression = experiment: Treatment with DNA methylation inhibitor, semi-quantitative RT-PCR of hSulf1; assay type: cell-based; details: SNU449 and Huh-7 cell lines; increasing concentrations (0, 5, or 10 μM), 5 days
Description: Isolation of total RNA, semi-quantitative RT-PCR, and quantitative real-time PCR: Total RNA was extracted from 31 pairs of matched HCCs and adjacent benign liver tissue and the 11 HCC cell lines using the RNEASY® kit (Qiagen). cDNA synthesis was performed using SUPERSCRIPT® II RNase H reverse transcriptase (Invitrogen/Life Technologies) to transcribe 1-5 μg of total RNA primed with 1 μl of 500 μg/ml random hexamers. Primers used for semi-quantitative RT-PCR were: hSulf1-F (5′-[…]-3′; […]) and hSulf1-R (5′-[…]-3′; SEQ ID NO:14), yielding an 826 bp PCR product; GAPDH-F (5′-[…]-3′; SEQ ID NO:15) and GAPDH-R (5′-[…]-3′; SEQ ID NO:16). […] For quantitative real-time PCR analysis of HCC tumors, the hSulf1 primers were hSulf1RT-F (5′- […]-3′; SEQ ID NO:39) and hSulf1RT-R (5′-[…]-3′; SEQ ID NO:40), yielding a 379 bp PCR product. Real-time PCR was performed according to the manufacturer's recommendation in a Roche LightCycler using the following profile: 95° C. for 90 seconds followed by 34 cycles of 0 seconds at 95° C., 10 seconds at 61° C., and 20 seconds at 72° C. hSulf1 mRNA levels were normalized by comparison to 18S ribosomal RNA levels measured in the same samples. […]
Treatment with the DNA methylation inhibitor, 5-aza-2′-deoxycytidine. […] RNA (2 μg) was reverse transcribed as described above and semi-quantitative RT-PCR performed as described. […]

cancer cells = details: previous studies; cited from earlier work
xenografts = details: in vivo, previous studies; cited from earlier work
[1] = test system: SNU182, SNU475 and SNU449 HCC cell lines; experiment: Detection and quantitation of apoptosis in SNU449, SNU182 and SNU475 HCC cell lines; assay type: cell-based; details: for cisplatin-induced apoptosis: 5 μM, 24 hours; for staurosporine-induced apoptosis: 1 μM, 5 hours
Description: Detection and quantitation of apoptosis: Apoptosis was quantitated by assessing nuclear changes indicative of apoptosis (i.e., chromatin condensation and nuclear fragmentation) using the DNA binding dye DAPI as described by Roberts et al. (supra). Cells were seeded in 35-mm plates at 2×10^5 cells per well. After incubation for 24 hours, the plates were washed, changed to serum free medium containing 1 μM staurosporine, and incubated for 5 hours at 37° C. Five micrograms of DAPI were added and the plates were incubated for 20 minutes at room temperature in the dark. The cells were then examined by fluorescence microscopy (Nikon Eclipse TE200; […] For each treatment, at least 300 cells in six different high-power fields were counted. […] For experiments using cisplatin, cells cultured in medium with 10% serum were treated with or without 5 μM cisplatin for 24 hours, then stained with DAPI and counted. Flow cytometry also was used to evaluate apoptosis. After a 5 hour treatment with 1 μM staurosporine as described above, cells were collected by centrifugation and washed twice in ice-cold PBS with 3% heat-inactivated FBS and 0.02% sodium azide. Cells were stained with 50 μg/ml 7-AAD for 15 minutes in the dark. The cells were resuspended in 500 μl PBS and analyzed using a FACScan analyzer (BD Bioscience). Apoptotic cells were calculated as percent of 7-AAD positive cells in 5,000 or more cells per sample. Immunoblot analysis for mitochondrial cytochrome c release: Immunoblot analysis for cytochrome c utilized cytosolic extracts prepared by selective digitonin permeabilization (Leist et al. (1998) Mol. Pharmacol. 54:789-801). Blots were probed with mouse monoclonal anti-cytochrome c antibody (BD Pharmingen) or mouse anti-β-actin antibody. For caspase 9, whole-cell lysates were prepared as described above for the sulfatase assay. Membranes were probed with mouse anti-procaspase 9 or mouse anti-β-actin antibody. Immunoblots were developed using ECL enhanced chemiluminescence reagents after incubation with horseradish peroxidase-conjugated secondary antibodies.

SKOV3 cells = experiment: Analysis of apoptosis (DAPI fluorescence microscopy, DNA fragmentation, 7-AAD flow cytometry, cytochrome c) in SKOV3 cells; assay type: cell-based; parameters: apoptosis, % of cells: dose or concentration left out as unconfirmed
Description: Analysis of Apoptosis: […] HSulf-1 transfected SKOV3 cells were seeded in 35-mm plates at a density of 2×10^5 cells/well. After incubation at 37° C. for 24 hours, the plates were washed and changed to serum-free medium. Staurosporine was added to a final concentration of 1 μm for 5 hours. DAPI was then added to each well. After a 20 minute incubation at room temperature in the dark, cells were examined by fluorescence microscopy (Nikon Eclipse TE200; Nikon Corp., Tokyo, Japan) using excitation and emission filters of 380 and 430 nm. An individual blinded to the experimental conditions counted at least 300 cells in six different high-power fields for each treatment. Each treatment was repeated at least three times in triplicate. […] The significance of differences between experimental variables was determined using the Student t test. DNA Fragmentation: Parental, vector and stable HSulf-1 clones 3 and 6 were treated with 1 μM staurosporine at 37° C. for 5 hours. Control or treated cells (5×10^5 cells) were harvested with trypsin and centrifuged. DNA was extracted using the Qiagen […]® kit. Aliquots containing 5 μg of DNA were resolved on a 1.5% agarose gel containing 0.5 μg/ml ethidium bromide and visualized under UV light. Flow Cytometry: After treatment with 1 μM staurosporine for 5 hours as described above, cells were washed twice in ice cold PBS containing 3% heat-inactivated fetal bovine serum and 0.02% sodium azide, stained with 7-aminoactinomycin D (7-AAD; 50 μg/ml) for 15 minutes in the dark, resuspended in 500 μl PBS, and subjected to flow cytometry on a FACScan analyzer (BD Bioscience, San Jose, Calif.). After analysis of 10,000 events, the percentage of 7-AAD positive cells was determined. Analysis of Cytosolic Cytochrome c: Parental SKOV3, stable clones of SKOV3-vector, and SKOV3-HSulf-1 clones 3 and 6 were treated with staurosporine as described above, washed in PBS, and incubated for 30 seconds in lysis buffer consisting of 210 mM D-mannitol, 70 mM sucrose, 10 mM HEPES, 5 mM sodium succinate, 0.2 mM EGTA, 0.15% BSA and 80 μg/ml digitonin. After sedimentation at 12,000×g for 1 minute, the supernatant was diluted with an equal volume of 2×sample buffer. The protein samples were quantified, resolved on a 12% SDS-PAGE gel, and subjected to immunoblot analysis as described below using anti-cytochrome c (mouse monoclonal; BD Pharmingen, San Diego, Calif.) at a dilution of 1:500.

OV207 clones = experiment: Drug sensitivity of OV207 clones transfected with HSulf-1; assay type: cell-based
[2] = test system: Hep3B and Huh-7-derived clones; experiment: Cisplatin-induced apoptosis in Hep3B and Huh-7 derived clones; assay type: cell-based; details: hSulf1-transfected vs Vector stable clones; 5 μM cisplatin
Description: Detection and quantitation of apoptosis: Apoptosis was quantitated by assessing nuclear changes indicative of apoptosis (i.e., chromatin condensation and nuclear fragmentation) using the DNA binding dye DAPI as described by Roberts et al. (supra). Cells were seeded in 35-mm plates at 2×10^5 cells per well. After incubation for 24 hours, the plates were washed, changed to serum free medium containing 1 μM staurosporine, and incubated for 5 hours at 37° C. Five micrograms of DAPI were added and the plates were incubated for 20 minutes at room temperature in the dark. The cells were then examined by fluorescence microscopy (Nikon Eclipse TE200; […] For each treatment, at least 300 cells in six different high-power fields were counted. […] For experiments using cisplatin, cells cultured in medium with 10% serum were treated with or without 5 μM cisplatin for 24 hours, then stained with DAPI and counted.

012SCC cells = experiment: Analysis of apoptosis (DAPI, 7-AAD flow cytometry) in 012SCC cells; assay type: cell-based; details: 1 μM, 5 hours
Description: Analysis of Apoptosis: Apoptosis was quantitated by assessing the number of cells containing nuclear changes indicative of apoptosis (chromatin condensation and nuclear fragmentation) after staining with DAPI. HSulf-1 transfected 012SCC cells were seeded in 35-mm plates at a density of 2×10^5 cells/well. After incubation at 37° C. for 24 hours, the plates were washed and changed to serum-free medium. […] After a 5 hour incubation for staurosporine and a 24 hour incubation for cisplatin at 37° C., DAPI was added to each well at a final concentration of 5 μg/ml. After a 20 minutes incubation in the dark at 37° C., cells were examined by fluorescence microscopy (Nikon Eclipse TE200; Nikon Corp., Tokyo, Japan) using excitation and emission filters of 380 and 430 nm. An individual blinded to the experimental conditions counted at least 300 cells in six different high-power fields for each treatment. Each treatment was repeated at least three times, performed in triplicate each time. The significance of differences between experimental variables was determined using the Student t test. Detection of Apoptosis by Flow Cytometry: HSulf-1-1 or vector transfected 012SCC cells were collected by centrifugation from untreated control and staurosporine treated cells. […] The cells were then resuspended in 500 μl of PBS and analyzed by FACScan (BD Bioscience). […]

## Nc1ncn([C@H]2C[C@H](O)[C@@H](CO)O2)c(=O)n1 [5-aza-2′-deoxycytidine]
hSulf1 expression
  hSulf1 expression: reactivation of hSulf1 expression

## COc1cc2ncnc(Nc3ccc(F)c(Cl)c3)c2cc1OCCCN1CCOCC1 [Iressa]
Cancer cells
  sensitization to chemotherapeutic drugs in vitro: sensitizes cancer cells to cisplatin, paclitaxel and topotecan
xenografts
  response of xenografts to combination: enhance response of xenografts to cisplatin or paclitaxel

## COc1cccc(-c2cc(=O)c3ccccc3o2)c1N [PD98059]
Cancer cells
  sensitization to chemotherapeutic drugs in vitro: sensitizes a variety of cell lines, including ovarian cancer cell lines, to cisplatin and paclitaxel

## COC(=O)CC(NC(=O)C(C)NC(=O)C(NC(=O)OCc1ccccc1)C(C)C)C(=O)CF (stereo not drawn) [Z-VAD(O-Me)-fmk, N-(N^α-benzyloxycarbonylvalinylalanyl) aspartic acid (O-methyl ester) fluoromethylketone] (Cbz-Val-Ala-Asp(OMe)-CH2F; configuration not given here)
[1]; 40 μM pretreatment for 1 hour before staurosporine
  effect on staurosporine-induced apoptosis: inhibited staurosporine-induced apoptosis

## N.N.[Cl][Pt][Cl] [cisplatin]
SKOV3 cells; HSulf-1-transfected cells, cisplatin, 24 hours
  apoptosis, % of cells: 25-40%
SKOV3 cells; parental or vector-transfected cells, cisplatin, 24 hours
  induction of apoptosis: little apoptosis
OV207 clones
  sensitivity to drug: increased sensitivity
[1]; SNU182 and three hSulf1-transfected stable clones
  cisplatin-induced apoptosis: high sensitivity
[1]; parental SNU449 and SNU449-Vector
  cisplatin-induced apoptosis: resistant
[2]
  cisplatin-induced apoptosis: increasing sensitivity

## CN[C@@H]1C[C@H]2O[C@@](C)([C@@H]1OC)n1c3ccccc3c3c4c(c5c6ccccc6n2c5c31)C(=O)NC4 [staurosporine]
SKOV3 cells; SKOV3 clones stably transfected with HSulf-1, 1 μM, 5 hours
  induction of apoptosis: markedly enhanced caspase-dependent apoptosis
SKOV3 cells; parental or vector-transfected SKOV3, 1 μM, 5 hours
  induction of apoptosis: no induction of apoptosis
OV207 clones
  sensitivity to drug: increased sensitivity
[1]; SNU182 and SNU475 (high hSulf1-expressing)
  staurosporine-induced apoptosis: large increase in apoptosis
[1]; hSulf1 negative parental SNU449 and SNU449-Vector
  staurosporine-induced apoptosis: minimal sensitivity
[1]; three hSulf1-transfected SNU449 clones
  staurosporine-induced apoptosis: high sensitivity
012SCC cells; HSulf-1-transfected cells
  apoptosis, % of cells: 40%
012SCC cells; parental or vector-transfected cells
  induction of apoptosis: little apoptosis
